According to PubChem BioAssay (NCI):
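Tested at 5 concentrations; 48 h exposure; 96-well plates; endpoints linearly interpolated, else capped at highest concentration. GI50 = concentration required for 50% inhibition of growth. At the TGI there is no net growth.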

Tests used:
Assay in all cases: DTP human tumour cell line panel, 48 h
UACC-257 melanoma = system: UACC-257 melanoma
SK-MEL-28 melanoma = system: SK-MEL-28 melanoma
EKVX NSCLC = system: EKVX NSCLC
SNB-75 CNS = system: SNB-75 CNS
HCC-2998 colon = system: HCC-2998 colon
COLO 205 colon = system: COLO 205 colon
KM12 colon = system: KM12 colon
U251 CNS = system: U251 CNS
HS 578T breast = system: HS 578T breast
RXF 393 renal = system: RXF 393 renal
NCI-H23 lung = system: NCI-H23 lung
CCRF-CEM leukemia = system: CCRF-CEM leukemia
K-562 leukemia = system: K-562 leukemia
DU-145 prostate = system: DU-145 prostate
MCF7 breast = system: MCF7 breast
SW-620 colon = system: SW-620 colon
A549 NSCLC = system: A549 NSCLC
SK-MEL-2 melanoma = system: SK-MEL-2 melanoma
LOX IMVI melanoma = system: LOX IMVI melanoma
SF-268 CNS = system: SF-268 CNS
CAKI-1 renal = system: CAKI-1 renal
786-0 renal = system: 786-0 renal
UO-31 renal = system: UO-31 renal
OVCAR-5 ovarian = system: OVCAR-5 ovarian
RPMI-8226 leukemia = system: RPMI-8226 leukemia
OVCAR-8 ovarian = system: OVCAR-8 ovarian
TK-10 renal = system: TK-10 renal
SK-OV-3 ovarian = system: SK-OV-3 ovarian
NCI-H522 lung = system: NCI-H522 lung
MDA-MB-231 breast = system: MDA-MB-231 breast
M14 melanoma = system: M14 melanoma
HOP-92 NSCLC = system: HOP-92 NSCLC
HCT-15 colon = system: HCT-15 colon
HT29 colon = system: HT29 colon
OVCAR-4 ovarian = system: OVCAR-4 ovarian
PC-3 prostate = system: PC-3 prostate
NCI-H460 lung = system: NCI-H460 lung
ACHN renal = system: ACHN renal
SF-295 CNS = system: SF-295 CNS
MOLT-4 leukemia = system: MOLT-4 leukemia
OVCAR-3 ovarian = system: OVCAR-3 ovarian
MALME-3M melanoma = system: MALME-3M melanoma
HL-60(TB) leukemia = system: HL-60(TB) leukemia
SF-539 CNS = system: SF-539 CNS
T-47D breast = system: T-47D breast
MDA-MB-435 = system: MDA-MB-435
SN12C renal = system: SN12C renal
HCT-116 colon = system: HCT-116 colon
SR leukemia = system: SR leukemia
NCI-H226 lung = system: NCI-H226 lung
A498 renal = system: A498 renal
SK-MEL-5 melanoma = system: SK-MEL-5 melanoma
UACC-62 melanoma = system: UACC-62 melanoma
HOP-62 NSCLC = system: HOP-62 NSCLC
IGROV1 ovarian = system: IGROV1 ovarian
BT-549 breast = system: BT-549 breast
SNB-19 CNS = system: SNB-19 CNS
NCI/ADR-RES ovarian = system: NCI/ADR-RES ovarian

**Q.** Which results are given for COC(=O)c1ccc2[nH]c(O)c(C(=Nc3ccc(N(C)C(=O)CN4CCN(C)CC4)cc3)c3ccc(OC)cc3)c2c1?
**A.** GI50 (UACC-257 melanoma): 10.5 µM; TGI (UACC-257 melanoma): 22.8 µM; GI50 (SK-MEL-28 melanoma): 3.15 µM; TGI (SK-MEL-28 melanoma): 14 µM; GI50 (EKVX NSCLC): 2.38 µM; TGI (EKVX NSCLC): 12.4 µM; GI50 (SNB-75 CNS): 0.294 µM; TGI (SNB-75 CNS): 8.27 µM; GI50 (HCC-2998 colon): 2.12 µM; TGI (HCC-2998 colon): 10.6 µM; GI50 (COLO 205 colon): 0.664 µM; TGI (COLO 205 colon): 2.34 µM; GI50 (KM12 colon): 0.0432 µM; TGI (KM12 colon): 6.45 µM; GI50 (U251 CNS): 1.09 µM; TGI (U251 CNS): 2.48 µM; GI50 (HS 578T breast): 0.186 µM; TGI (HS 578T breast): 10.3 µM; GI50 (RXF 393 renal): 0.466 µM; TGI (RXF 393 renal): 1.82 µM; GI50 (NCI-H23 lung): 1.25 µM; TGI (NCI-H23 lung): 3.64 µM; GI50 (CCRF-CEM leukemia): 0.414 µM; TGI (CCRF-CEM leukemia): 11.1 µM; GI50 (K-562 leukemia): 0.255 µM; TGI (K-562 leukemia): 10.2 µM; GI50 (DU-145 prostate): 2.37 µM; TGI (DU-145 prostate): 11.3 µM; GI50 (MCF7 breast): 0.518 µM; TGI (MCF7 breast): 2.49 µM; GI50 (SW-620 colon): 0.756 µM; TGI (SW-620 colon): 4.35 µM; GI50 (A549 NSCLC): 2.01 µM; TGI (A549 NSCLC): 12.1 µM; GI50 (SK-MEL-2 melanoma): 2.04 µM; TGI (SK-MEL-2 melanoma): 7.04 µM; GI50 (LOX IMVI melanoma): 0.506 µM; TGI (LOX IMVI melanoma): 2.13 µM; GI50 (SF-268 CNS): 2.61 µM; TGI (SF-268 CNS): 13.6 µM; GI50 (CAKI-1 renal): 0.383 µM; TGI (CAKI-1 renal): 11.1 µM; GI50 (786-0 renal): 0.73 µM; TGI (786-0 renal): 2.13 µM; GI50 (UO-31 renal): 1.37 µM; TGI (UO-31 renal): 4.46 µM; GI50 (OVCAR-5 ovarian): 5.21 µM; TGI (OVCAR-5 ovarian): 17.6 µM; GI50 (RPMI-8226 leukemia): 1.46 µM; TGI (RPMI-8226 leukemia): 4.4 µM; GI50 (OVCAR-8 ovarian): 1.18 µM; TGI (OVCAR-8 ovarian): 24.6 µM; GI50 (TK-10 renal): 2.39 µM; TGI (TK-10 renal): 12.4 µM; GI50 (SK-OV-3 ovarian): 0.228 µM; TGI (SK-OV-3 ovarian): 1.75 µM; GI50 (NCI-H522 lung): 1.66 µM; TGI (NCI-H522 lung): 5.6 µM; GI50 (MDA-MB-231 breast): 1.07 µM; TGI (MDA-MB-231 breast): 2.95 µM; GI50 (M14 melanoma): 0.724 µM; TGI (M14 melanoma): 2.28 µM; GI50 (HOP-92 NSCLC): 3.7 µM; TGI (HOP-92 NSCLC): 15.2 µM; GI50 (HCT-15 colon): 1.81 µM; TGI (HCT-15 colon): 6.61 µM; GI50 (HT29 colon): 1.11 µM; TGI (HT29 colon): 25.2 µM; GI50 (OVCAR-4 ovarian): 0.928 µM; TGI (OVCAR-4 ovarian): 3.14 µM; GI50 (PC-3 prostate): 1.16 µM; TGI (PC-3 prostate): 7.77 µM; GI50 (NCI-H460 lung): 1.48 µM; TGI (NCI-H460 lung): 3.76 µM; GI50 (ACHN renal): 1.71 µM; TGI (ACHN renal): 10.3 µM; GI50 (SF-295 CNS): 1.25 µM; TGI (SF-295 CNS): 3.49 µM; GI50 (MOLT-4 leukemia): 0.414 µM; TGI (MOLT-4 leukemia): 3.62 µM; GI50 (OVCAR-3 ovarian): 1.23 µM; TGI (OVCAR-3 ovarian): 2.83 µM; GI50 (MALME-3M melanoma): 1.33 µM; TGI (MALME-3M melanoma): 2.72 µM; GI50 (HL-60(TB) leukemia): 0.712 µM; TGI (HL-60(TB) leukemia): 3.15 µM; GI50 (SF-539 CNS): 0.473 µM; TGI (SF-539 CNS): 1.76 µM; GI50 (T-47D breast): 1.82 µM; TGI (T-47D breast): 18.1 µM; GI50 (MDA-MB-435): 2.05 µM; TGI (MDA-MB-435): 14.5 µM; GI50 (SN12C renal): 0.41 µM; TGI (SN12C renal): 13.1 µM; GI50 (HCT-116 colon): 0.227 µM; TGI (HCT-116 colon): 10.1 µM; GI50 (SR leukemia): 0.309 µM; TGI (SR leukemia): 4.92 µM; GI50 (NCI-H226 lung): 0.906 µM; TGI (NCI-H226 lung): 18.9 µM; GI50 (A498 renal): 1.52 µM; TGI (A498 renal): 3.11 µM; GI50 (SK-MEL-5 melanoma): 1.35 µM; TGI (SK-MEL-5 melanoma): 2.77 µM; GI50 (UACC-62 melanoma): 4.96 µM; TGI (UACC-62 melanoma): 18.6 µM; GI50 (HOP-62 NSCLC): 1.57 µM; TGI (HOP-62 NSCLC): 12.4 µM; GI50 (IGROV1 ovarian): 0.226 µM; TGI (IGROV1 ovarian): 2.6 µM; GI50 (BT-549 breast): 1.15 µM; TGI (BT-549 breast): 2.65 µM; GI50 (SNB-19 CNS): 2.1 µM; TGI (SNB-19 CNS): 10 µM; GI50 (NCI/ADR-RES ovarian): 12.5 µM; TGI (NCI/ADR-RES ovarian): 37.2 µM

**Q.** What does the source list for C=C(C(=O)OC1C(CO)OC(OCC2CC[C@@H]3C[C@]4(OC(=O)C3=C)C(C)=CC(=O)C24)C(O)C1O)[C@@H]1CCC(CO)C2C(=O)C=C(C)[C@@]2(O)C1 (some centres undefined)?
**A.** TGI (UACC-257 melanoma): 5.17 µM; TGI (SK-MEL-28 melanoma): 14.8 µM; TGI (EKVX NSCLC): 8.61 µM; TGI (SNB-75 CNS): 29 µM; TGI (HCC-2998 colon): 4.29 µM; TGI (COLO 205 colon): 1.13 µM; TGI (KM12 colon): 8.31 µM; TGI (U251 CNS): 16 µM; TGI (HS 578T breast): > 53.1 µM; TGI (RXF 393 renal): 4.14 µM; TGI (NCI-H23 lung): 5.12 µM; TGI (CCRF-CEM leukemia): 1.3 µM; TGI (K-562 leukemia): 31.1 µM; TGI (DU-145 prostate): 17.6 µM; TGI (MCF7 breast): 12.8 µM; TGI (SW-620 colon): 13.3 µM; TGI (A549 NSCLC): 18 µM; TGI (SK-MEL-2 melanoma): 8.29 µM; TGI (LOX IMVI melanoma): 6.32 µM; TGI (SF-268 CNS): 16.1 µM; TGI (CAKI-1 renal): 7.93 µM; TGI (786-0 renal): 7.85 µM; TGI (UO-31 renal): 7.98 µM; TGI (OVCAR-5 ovarian): 7.15 µM; TGI (RPMI-8226 leukemia): 9.12 µM; TGI (OVCAR-8 ovarian): 14.8 µM; TGI (TK-10 renal): 13.1 µM; TGI (SK-OV-3 ovarian): 55.9 µM; TGI (NCI-H522 lung): 0.783 µM; TGI (MDA-MB-231 breast): 3.26 µM; TGI (M14 melanoma): 4.81 µM; TGI (HOP-92 NSCLC): 6.66 µM; TGI (HCT-15 colon): 3.1 µM; TGI (HT29 colon): 6.37 µM; TGI (OVCAR-4 ovarian): 20.1 µM; TGI (PC-3 prostate): 6.63 µM; TGI (NCI-H460 lung): 13.7 µM; TGI (ACHN renal): 12.3 µM; TGI (SF-295 CNS): 35 µM; TGI (MOLT-4 leukemia): 8.41 µM; TGI (OVCAR-3 ovarian): 14.7 µM; TGI (MALME-3M melanoma): 3.44 µM; TGI (HL-60(TB) leukemia): 3.76 µM; TGI (SF-539 CNS): 10.5 µM; TGI (T-47D breast): 24.3 µM; TGI (MDA-MB-435): 5.04 µM; TGI (SN12C renal): 5.42 µM; TGI (HCT-116 colon): 3.07 µM; TGI (SR leukemia): 11.6 µM; TGI (NCI-H226 lung): 20.2 µM; TGI (A498 renal): 9.86 µM; TGI (SK-MEL-5 melanoma): 2.75 µM; TGI (UACC-62 melanoma): 3.35 µM; TGI (HOP-62 NSCLC): 24.9 µM; TGI (IGROV1 ovarian): 12.6 µM; TGI (BT-549 breast): 3.52 µM; TGI (SNB-19 CNS): 31.8 µM; TGI (NCI/ADR-RES ovarian): 11.2 µM
